Laboratory results from US20180127465A1 (priority 2015, published 2018).

What was measured:
[1] = test system: mouse middle cerebral artery occlusion (MCAO) stroke model; conditions: in vivo
primary cortical neurons [2] = type: cell-based
primary cortical neurons [3] = type: cell-based; remark: listed apart in the source
primary cortical neurons [4] = type: cell-based; remark: listed apart in the source
[5] = test system: mouse middle cerebral artery occlusion (MCAO) stroke model; conditions: in vivo; remark: listed apart in the source
primary cortical neurons [6] = type: cell-based; remark: listed apart in the source

SMILES	Horizontal Activity [1]	No. of Movements [1]	Rest Time [1] [s]	Stereotypy Counts [1]	Total Distance [1] [CM]	Vertical Activity [1]	relative neuronal survival (MTT), in words (primary cortical neurons [2])	less LDH release (primary cortical neurons [3]) [%]	relative neuronal death (LDH), in words (primary cortical neurons [3])	neuronal cell death (LDH), in words (primary cortical neurons [4])	improvement of neurological score [5] [%]	ROS production, in words (primary cortical neurons [6])
C[C@@H](NC(=O)[C@@H](N)Cc1ccc(O)cc1)C(=O)NCC(=O)N[C@@H](Cc1ccccc1)C(=O)NNC(=O)[C@H](Cc1ccccc1)NC(=O)CNC(=O)[C@@H](C)NC(=O)[C@@H](N)Cc1ccc(O)cc1 [biphalin]	760 ± 75	42 ± 6	240 ± 7	390 ± 46	650 ± 81	28 ± 3	significantly improved relative neuronal survival	18.4	significantly decreased relative neuronal death	significantly decreased neuronal cell death	25.5	
O=C1CC[C@@]2(O)[C@H]3Cc4ccc(O)c5c4[C@@]2(CCN3CC2CC2)[C@H]1O5 [NTX, naltrexone]										No statistical significant difference		did not show significant decrease in ROS production
